# Measurements as given in patent US20140228377A1, “METHYLPIPERIDINE DERIVATIVE” (TAISHO PHARMACEUTICAL CO., LTD., priority 2011, published 2014).
# Where two headings read alike, the source gives them in different places.
# How the values were obtained:
# [1] = molecular target: T1, orexin-2 receptor (hOX2R) (Homo sapiens, UniProt O43614); assay: Orexin antagonistic activity assay (intracellular Ca2+, FDSS) in CHO cells expressing hOX2R; assay type: cell-based
# T1 construct: expressed in transfected cells; host or cells: Chinese hamster ovary (CHO) cells
# T1 sequence (O43614 1-444): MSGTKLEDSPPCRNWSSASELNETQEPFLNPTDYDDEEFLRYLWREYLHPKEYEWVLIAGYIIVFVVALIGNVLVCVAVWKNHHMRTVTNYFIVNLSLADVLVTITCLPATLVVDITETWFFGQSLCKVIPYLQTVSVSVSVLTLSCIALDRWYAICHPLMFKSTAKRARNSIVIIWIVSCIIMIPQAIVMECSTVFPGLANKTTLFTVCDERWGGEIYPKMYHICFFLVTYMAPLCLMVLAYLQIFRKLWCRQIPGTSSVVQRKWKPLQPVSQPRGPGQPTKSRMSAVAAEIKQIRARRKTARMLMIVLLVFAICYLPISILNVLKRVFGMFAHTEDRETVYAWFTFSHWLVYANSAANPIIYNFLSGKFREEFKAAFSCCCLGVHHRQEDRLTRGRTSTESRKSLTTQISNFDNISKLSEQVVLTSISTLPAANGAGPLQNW
# Description: (§1) The antagonistic activity of each test compound against human orexin-1 receptor (hOX1R) and orexin-2 receptor (hOX2R) was assayed by a modification of a method described in the literature (Toshikatsu Okumura et al., Biochemical and Biophysical Research Communications 280, 976-981, 2001). Chinese hamster ovary (CHO) cells forced to express hOX1R or hOX2R were inoculated at a density of 20,000 cells/well to a 96-well Black clear bottom plate (Nunc) and cultured at 37° C. for 16 hours under 5% CO2 conditions in a Ham's F-12 medium containing 0.1 mM MEM nonessential amino acids, 0.5 mg/ml G418, and 10% fetal bovine serum (all from Invitrogen Corp.). After removal of the medium, 100 μL of a buffer solution for assay (25 mM HEPES (Dojindo Laboratories), Hanks' balanced salt solution (Invitrogen Corp.), 0.1% bovine serum albumin, 2.5 mM probenecid, and 200 μg/ml Amaranth (all from Sigma-Aldrich Corp.), pH 7.4) containing 0.5 μM Fluo-3 AM ester (Dojindo Laboratories) was added to the cells, which were then incubated at 37° C. for 60 minutes under 5% CO2 conditions. After removal of the buffer solution for assay containing Fluo-3 AM ester, each test compound was dissolved at a concentration of 10 mM in dimethyl sulfoxide and diluted with a buffer solution for assay. Then, 150 μL of the solution was added to the cells, which were then incubated for 30 minutes.
# (§2) A ligand peptide (Pyr-[…]NH2; Peptide Institute, Inc.) derived from human orexin-A by the substitution of two amino acids was diluted with a buffer solution for assay to final concentrations of 300 pM for hOX1R and 3 nM for hOX2R. Reaction was initiated by the addition of 50 μL of this ligand solution. The fluorescence intensity of the reaction was measured in each well every second for 3 minutes using Functional Drug Screening System (FDSS; manufactured by Hamamatsu Photonics K.K.), and the maximum fluorescence intensity was used as an index for intracellular Ca^2+ concentration to determine antagonistic activity. The antagonistic activity of the test compound was calculated with fluorescence intensity from a well supplemented with only a diluting buffer solution as 100% and fluorescence intensity from a well supplemented with a buffer solution free from the ligand and the compound as 0%. The 50% inhibitory concentration (IC50 value) was determined on the basis of fluorescence intensity derived from the test compound added at varying concentrations.
# [2] = molecular target: T2, human orexin-1 receptor (hOX1R) (Homo sapiens, UniProt O43613); assay: Orexin antagonistic activity assay (intracellular Ca2+, FDSS) in CHO cells expressing hOX1R; assay type: cell-based
# T2 construct: expressed in transfected cells; host or cells: Chinese hamster ovary (CHO) cells
# T2 sequence (O43613 1-425): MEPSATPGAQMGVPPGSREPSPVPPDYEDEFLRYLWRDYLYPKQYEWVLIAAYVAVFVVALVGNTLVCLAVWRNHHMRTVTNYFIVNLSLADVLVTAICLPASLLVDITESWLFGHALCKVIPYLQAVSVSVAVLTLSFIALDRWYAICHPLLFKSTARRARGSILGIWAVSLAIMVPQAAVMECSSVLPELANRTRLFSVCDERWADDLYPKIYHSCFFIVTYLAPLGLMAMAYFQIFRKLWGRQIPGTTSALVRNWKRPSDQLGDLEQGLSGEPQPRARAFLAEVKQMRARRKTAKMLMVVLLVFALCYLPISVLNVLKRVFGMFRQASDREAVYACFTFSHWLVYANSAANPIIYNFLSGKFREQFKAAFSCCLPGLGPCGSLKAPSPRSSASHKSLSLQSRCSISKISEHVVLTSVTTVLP
# Description: as §1, §2
# [3] = CHO cells expressing hOX2R, ligand peptide 3 nM, Fluo-3 maximum fluorescence intensity, read-out: IC50 value OX2
# [4] = CHO cells expressing hOX1R, ligand peptide 300 pM, Fluo-3 maximum fluorescence intensity, read-out: IC50 value OX1
Structure (SMILES),"IC50 [1, 3] [nM]","IC50 [2, 4] [nM]",IC50 [1] [nM],IC50 [2] [nM]
"C[C@@H]1CC[C@@H](c2nc3cc(Cl)ccc3o2)CN1C(=O)c1cc(F)ccc1-n1nccn1 (single isomer, unassigned) [Example 2, [(2R*,5R*)-5-(5-Chloro-1,3-benzoxazol-2-yl)-2-methylpiperidin-1-yl][5-fluoro-2-(2H-1,2,3-triazol-2-yl)phenyl]methanone]",8.7,19.8,–,–
"Cc1ccc(-c2ncccn2)c(C(=O)N2CC(c3nc4cc(Cl)ccc4o3)CC[C@H]2C)n1 (single isomer, unassigned) [Example 4, [(2R*,5R*)-5-(5-Chloro-1,3-benzoxazol-2-yl)-2-methylpiperidin-1-yl][6-methyl-3-(pyrimidin-2-yl)pyridin-2-yl]methanone]",17.2,4.3,–,–
"Cc1ccc(-n2nccn2)c(C(=O)N2C[C@H](c3nc4cc(Cl)ccc4o3)CC[C@H]2C)c1 (single isomer, unassigned) [Example 9, [(2R*,5R*)-5-(5-Chloro-1,3-benzoxazol-2-yl)-2-methylpiperidin-1-yl][5-methyl-2-(2H-1,2,3-triazol-2-yl)phenyl]methanone]",–,–,1.8,1.2
"Cc1ccc(-n2nccn2)c(C(=O)N2C[C@H](c3nc4cc(F)ccc4o3)CC[C@H]2C)n1 (single isomer, unassigned) [Example 11, [(2R*,5R*)-5-(5-Fluoro-1,3-benzoxazol-2-yl)-2-methylpiperidin-1-yl][6-methyl-3-(2H-1,2,3-triazol-2-yl)pyridin-2-yl]methanone]",43.7,42.1,–,–
"Cc1ccc(-n2nccn2)c(C(=O)N2C[C@H](c3nc4ccc(F)cc4o3)CC[C@H]2C)n1 (single isomer, unassigned) [Example 12, [(2R*,5R*)-5-(6-Fluoro-1,3-benzoxazol-2-yl)-2-methylpiperidin-1-yl][6-methyl-3-(2H-1,2,3-triazol-2-yl)pyridin-2-yl]methanone]",105,111,–,–
"C[C@@H]1CC[C@@H](c2nc3cc(Cl)ccc3o2)CN1C(=O)c1cc(Cl)ccc1-c1ncccn1 [Example 13, [(2R,5R)-5-(5-Chloro-1,3-benzoxazol-2-yl)-2-methylpiperidin-1-yl][5-chloro-2-(pyrimidin-2-yl)phenyl]methanone]",13,4.4,–,–
"C[C@@H]1CC[C@@H](c2nc3cc(Cl)ccc3o2)CN1C(=O)c1ccc(F)cc1-n1nccn1 [Example 14, [(2R,5R)-5-(5-Chloro-1,3-benzoxazol-2-yl)-2-methylpiperidin-1-yl][4-fluoro-2-(2H-1,2,3-triazol-2-yl)phenyl]methanone]",8.8,41.6,–,–
"C[C@@H]1CC[C@@H](c2nc3cc(Cl)ccc3o2)CN1C(=O)c1cccc(F)c1-n1nccn1 [Example 15, [(2R,5R)-5-(5-Chloro-1,3-benzoxazol-2-yl)-2-methylpiperidin-1-yl][3-fluoro-2-(2H-1,2,3-triazol-2-yl)phenyl]methanone]",9.7,142,–,–
"C[C@@H]1CC[C@@H](c2nc3cc(Cl)ccc3o2)CN1C(=O)c1ccc(F)cc1-c1ncccn1 [Example 17, [(2R,5R)-5-(5-Chloro-1,3-benzoxazol-2-yl)-2-methylpiperidin-1-yl][4-fluoro-2-(pyrimidin-2-yl)phenyl]methanone]",10.3,54.5,–,–
"C[C@@H]1CC[C@@H](c2nc3cc(Cl)ccc3o2)CN1C(=O)c1cccc(F)c1-c1ncccn1 [Example 18, [(2R,5R)-5-(5-Chloro-1,3-benzoxazol-2-yl)-2-methylpiperidin-1-yl][3-fluoro-2-(pyrimidin-2-yl)phenyl]methanone]",59.5,301,–,–
"C[C@@H]1CC[C@@H](c2nc3cc(Cl)ccc3o2)CN1C(=O)c1c(F)cccc1-c1ncccn1 [Example 19, [(2R,5R)-5-(5-Chloro-1,3-benzoxazol-2-yl)-2-methylpiperidin-1-yl][2-fluoro-6-(pyrimidin-2-yl)phenyl]methanone]",9.3,83.7,–,–
"C[C@@H]1CC[C@@H](c2nc3cc(Cl)ccc3o2)CN1C(=O)c1cc(C(F)(F)F)ccc1-n1nccn1 [Example 20, [(2R,5R)-5-(5-Chloro-1,3-benzoxazol-2-yl)-2-methylpiperidin-1-yl][2-(2H-1,2,3-triazol-2-yl)-5-(trifluoromethyl)phenyl]methanone]",55.7,108,–,–
C[C@@H]1CC[C@@H](c2nc3cc(Cl)ccc3o2)CN1C(=O)c1cc(C#N)ccc1-n1nccn1 [Example 21],155,211,–,–

# Continued, in another order:
"IC50 [1, 3] [nM]","IC50 [2, 4] [nM]",Structure (SMILES),IC50 [1] [nM],IC50 [2] [nM]
4.1,18.1,"C[C@@H]1CC[C@@H](c2nc3cc(Cl)ccc3o2)CN1C(=O)c1ccccc1-n1nccn1 (single isomer, unassigned) [Example 3, [(2R*,5R*)-5-(5-Chloro-1,3-benzoxazol-2-yl)-2-methylpiperidin-1-yl][2-(2H-1,2,3-triazol-2-yl)phenyl]methanone]",–,–
4.3,3.1,"Cc1ccc(-c2ncccn2)c(C(=O)N2C[C@H](c3nc4cc(Cl)ccc4o3)CC[C@H]2C)c1 (single isomer, unassigned) [Example 5, [(2R*,5R*)-5-(5-Chloro-1,3-benzoxazol-2-yl)-2-methylpiperidin-1-yl][5-methyl-2-(pyrimidin-2-yl)phenyl]methanone]",–,–
2.9,54.5,"C[C@@H]1CC[C@@H](c2nc3cc(Cl)ccc3o2)CN1C(=O)c1cc(F)ccc1-c1ncccn1 (single isomer, unassigned) [Example 6, [(2R*,5R*)-5-(5-Chloro-1,3-benzoxazol-2-yl)-2-methylpiperidin-1-yl][5-fluoro-2-(pyrimidin-2-yl)phenyl]methanone]",–,–
2,49.5,"C[C@@H]1CC[C@@H](c2nc3cc(Cl)ccc3o2)CN1C(=O)c1ccccc1-c1ncccn1 (single isomer, unassigned) [Example 7, [(2R*,5R*)-5-(5-Chloro-1,3-benzoxazol-2-yl)-2-methylpiperidin-1-yl][2-(pyrimidin-2-yl)phenyl]methanone]",–,–
2.1,0.7,"Cc1ccc(-c2ncccn2)c(C(=O)N2C[C@H](c3nc4cc(F)ccc4o3)CC[C@H]2C)c1 (single isomer, unassigned) [Example 8, [(2R*,5R*)-5-(5-Fluoro-1,3-benzoxazol-2-yl)-2-methylpiperidin-1-yl][5-methyl-2-(pyrimidin-2-yl)phenyl]methanone]",–,–
4.9,4.8,"Cc1ccc(-n2nccn2)c(C(=O)N2C[C@H](c3nc4cc(F)ccc4o3)CC[C@H]2C)c1 (single isomer, unassigned) [Example 10, [(2R*,5R*)-5-(5-Fluoro-1,3-benzoxazol-2-yl)-2-methylpiperidin-1-yl][5-methyl-2-(2H-1,2,3-triazol-2-yl)phenyl]methanone]",–,–
3.6,25.6,"C[C@@H]1CC[C@@H](c2nc3cc(Cl)ccc3o2)CN1C(=O)c1c(F)cccc1-n1nccn1 [Example 16, [(2R5R)-5-(5-Chloro-1,3-benzoxazol-2-yl)-2-methylpiperidin-1-yl][2-fluoro-6-(2H-1,2,3-triazol-2-yl)phenyl]methanone]",–,–
